In patent publication US9464064B2, “HCV helicase inhibitors and methods of use thereof” (University of Kansas, priority 2011, dated 2016):
Read-outs that look alike come from different tables or passages of the source.

Experiments:
[1] = tested on: MBHA DNA substrate; assay: Modified FID assay, SYBR Green I; type: binding; conditions: for DNA binding (%): SYBR Green I-FID, average (±SD) percent bound at 100 μM
Protocol: A modified FID assay, in which ethidium bromide was replaced with SYBR Green I (Invitrogen), was used to estimate a compounds affinity for the MBHA substrate. Reactions were performed as described above except that the DNA substrate was present at 0.32 μM, ethidium bromide was absent, and SYBER Green was present at (0.68 μM). Data were normalized as described above and fit to concentration-response equation using GraphPad Prism software. Titrations with each compound were performed in triplicate, and EC50 values from three independent titrations are reported ±standard deviations.

[2] = tested on: Huh-7.5 cells; assay: Cell viability assay ([…]-GLO); type: cell-based, human; conditions: for Cell viability (% viable): 10 μM compound, triplicate, average ± SD
Protocol: To assess compound toxicity toward Huh-7.5 cells, cells were plated and treated as above and cell viability was assessed using the […]-GLO luminescent cell viability kit (PROMEGA) following the manufacturer's instructions. Briefly, at the end of a 72 hour incubation period, the medium was aspirated and the cells were washed with 1×PBS, then an equal volume of growth medium and […]-GLO reagent was added and the lysis was initiated by mixing on an orbital shaker. The plate was incubated at 23° C. for 30 minutes and the luciferase activity was measured for 1 second using the FLUOSTAR Omega microplate reader (BMG Labtech).

[3] = target: T1, E. coli SSB-Cy5-dT15 complex (Escherichia coli, UniProt P0AGE0); assay: Escherichia coli SSB Cy5-dT15 binding assay (fluorescence polarization); conditions: for IC50: disruption of Cy5-dT15-SSB complex, read-out: Cy5-dT15-SSB Binding IC50; for inhibition at 100 µM: read-out: SSB % Displaced @ 100 μM; for EC50: read-out: SSB EC50
T1 construct: purchased Promega
T1 sequence (P0AGE0 2-178, one chain of several): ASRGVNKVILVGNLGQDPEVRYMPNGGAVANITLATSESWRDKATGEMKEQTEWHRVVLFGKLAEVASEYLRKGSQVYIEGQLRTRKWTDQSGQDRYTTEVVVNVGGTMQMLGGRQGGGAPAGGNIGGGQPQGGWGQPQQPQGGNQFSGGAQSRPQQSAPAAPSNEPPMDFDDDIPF
Procedure, shortened: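 Fluorescence polarization with 5 nM Cy5-dT15 and 20 nM E. coli SSB in 25 mM MOPS pH 7.5, 1.25 mM MgCl2, BSA, Tween 20, DTT. Screening at 1% DMSO; IC50 runs at 5% DMSO. Excitation 635 nm, parallel and perpendicular emission at 667 nm.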

[4] = target: T2, NS3h_2a(JFH1) (Hepatitis C virus genotype 2a, UniProt Q99IB8); assay: MBHA, DNA substrate, genotype 2a helicase; type: biochemical, hepatitis C virus genotype 2a(JFH1); conditions: genotype 2a (JFH1); read-out: Target Potency MBHA (IC50 avg., μM) 2a (JFH1) (converted)
T2 construct: truncated C-terminally His-tagged NS3 proteins lacking the N-terminal protease, called NS3h; His-tag (C); made in house
T2 sequence (Q99IB8 1196-1661): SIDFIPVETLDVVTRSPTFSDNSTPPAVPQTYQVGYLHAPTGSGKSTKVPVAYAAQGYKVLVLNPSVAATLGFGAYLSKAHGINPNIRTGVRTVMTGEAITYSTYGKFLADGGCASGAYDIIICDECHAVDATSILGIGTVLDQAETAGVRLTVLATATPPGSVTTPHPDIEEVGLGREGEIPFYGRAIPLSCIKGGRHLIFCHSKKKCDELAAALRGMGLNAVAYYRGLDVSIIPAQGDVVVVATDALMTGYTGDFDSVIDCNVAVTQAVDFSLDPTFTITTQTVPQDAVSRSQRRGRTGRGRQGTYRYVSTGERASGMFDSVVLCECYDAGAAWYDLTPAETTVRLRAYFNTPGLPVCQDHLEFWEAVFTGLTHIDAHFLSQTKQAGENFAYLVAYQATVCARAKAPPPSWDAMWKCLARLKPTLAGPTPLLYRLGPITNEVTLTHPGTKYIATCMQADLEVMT
Protocol: All oligonucleotides were purchased from Integrated DNA Technologies (IDT, Coralville, Iowa). Primuline derivatives were synthesized and purified as described herein. Three different NS3 proteins were used in this study. Two were truncated C-terminally His-tagged NS3 proteins lacking the N-terminal protease, called NS3h, the third was a full-length NS3 with the portion of NS4A needed for protease activation fused to its N-terminus, called scNS4A-NS3 (Howe, et al. (1999) Protein Sci. 8:1332-41), and the fourth was a 23 kDa scNS4A-NS3 protease fragment lacking the helicase domains, called scNS4A-NS3p (Protein One, Rockville, Md.). NS3h was expressed from two different HCV strains. NS3h_1b(con1) was from the con1 strain of genotype 1b (GENBANK accession AB114136), and NS3h_2a(JFH1) was from the JFH1 strain of HCV genotype 2a (GENBANK accession AJ238799). […] His-tagged recombinant NS3h_1b(con1), NS3h_2a(JFH1), and scNS4A-NS3 (also from genotype 1b(con1)) were expressed, and purified as previously described (Frick, et al. (2010) supra; Lam, et al. (2003) J. Virol. 77:3950-3961). The scNS4A-NS3p (genotype 1b) was from Protein One. A plasmid expressing NS3h from dengue virus strain 2 (NS3h_DV2)(GENBANK accession 2BMF) is known in the art (Xu, et al. (2005) J. Virol. 79:10278-10288), and used to express and purify NS3h_DV2 (Belon, et al. (2010) supra)
Compounds that specifically target less conserved regions of a HCV protein are often not potent inhibitors of the same protein derived from other genotypes, and they might be susceptible to rapid evolution of related viruses. As described herein, primuline derivatives can inhibit HCV helicase isolated from the genotype 1b(con1) strain. Therefore to further analyze specificity, the subset of primuline analogs was tested on the helicase isolated from the genotype 2a(JFH1) strain. The two recombinant proteins differ at 83 of their 480 amino acids. The JHF1 strain is also of interest because it serves as the backbone for HCV strains capable of replicating in cell culture (Wakita, et al. (2005) Nat. Med. 11:791-796). The molecular beacon-based helicase assay (MBHA) (Belon & Frick (2008) supra) was used to measure the ability of each compound to inhibit DNA unwinding catalyzed by NS3h isolated from genotype 2a(JFH1) (NS3h_2a(JFH1)). […] Selected compounds were also tested for the ability to inhibit helicase reactions catalyzed by full-length NS3 and a single chain NS4A-NS3 protein (scNS4A-NS3) described below and used for protease assays.

[5] = SYBR Green, read-out: FID (SG) EC50 (converted)

Cc1ccc2nc(-c3ccc4nc(-c5ccc(NC(=O)c6ccc(NC(=O)OCC7c8ccccc8-c8ccccc87)cc6)cc5)sc4c3)sc2c1S(=O)(=O)O [Compound 16, 2′-(4-(4-((((9H-fluoren-9-yl)methoxy)carbonyl)amino)benzamido)phenyl)-6-methyl-[2,6′-bibenzo[d]thiazole]-7-sulfonic acid]
DNA binding (%) [1]: 76 ± 5% | FID (SG) % Displaced @ 100 μM ([1]; SYBR Green): 76 ± 5% | EC50 [1, 5]: 6 ± 2 µM | Cell Viability (% @ 10 μM) [2]: 92 ± 4% | Cell viability (% viable) [2]: 92 ± 4% | IC50 [3]: 179 ± 239 µM | inhibition at 100 µM [3]: 53% | EC50 [3]: > 100 µM | IC50 [4]: 5.8 ± 3.1 µM

Cc1ccc2nc(-c3ccc4nc(-c5ccc(NC(=O)c6ccccc6C(F)(F)F)cc5)sc4c3)sc2c1S(=O)(=O)O [Compound 19, 6-methyl-2′-(4-(2-(trifluoromethyl)benzamido)phenyl)-[2,6′-bibenzo[d]thiazole]-7-sulfonic acid]
DNA binding (%) [1]: 30 ± 15% | FID (SG) % Displaced @ 100 μM ([1]; SYBR Green): 30 ± 15% | EC50 [1, 5]: > 100 µM | Cell Viability (% @ 10 μM) [2]: 112 ± 1% | Cell viability (% viable) [2]: 112 ± 1% | IC50 [3]: 13 ± 2 µM | inhibition at 100 µM [3]: 92% | EC50 [3]: 13 ± 2 µM | IC50 [4]: 24.3 ± 9 µM

Cc1ccc2nc(-c3ccc4nc(-c5ccc(NC(=O)c6cccc(C(F)(F)F)c6)cc5)sc4c3)sc2c1S(=O)(=O)O [Compound 20, 6-methyl-2′-(4-(3-(trifluoromethyl)benzamido)phenyl)-[2,6′-bibenzo[d]thiazole]-7-sulfonic acid]
DNA binding (%) [1]: 46 ± 10% | FID (SG) % Displaced @ 100 μM ([1]; SYBR Green): 46 ± 10% | EC50 [1, 5]: > 100 µM | Cell Viability (% @ 10 μM) [2]: 121 ± 3% | Cell viability (% viable) [2]: 121 ± 3% | inhibition at 100 µM [3]: 23% | EC50 [3]: > 100 µM | IC50 [4]: 15.9 ± 2 µM

Cc1ccc2nc(-c3ccc4nc(-c5ccc(NC(=O)c6c(F)cccc6C(F)(F)F)cc5)sc4c3)sc2c1S(=O)(=O)O [Compound 21, 2′-(4-(2-fluoro-6-(trifluoromethyl)benzamido)phenyl)-6-methyl-[2,6′-bibenzo[d]thiazole]-7-sulfonic acid]
DNA binding (%) [1]: 66 ± 40% | FID (SG) % Displaced @ 100 μM ([1]; SYBR Green): 66 ± 40% | EC50 [1, 5]: 64 ± 34 µM | Cell Viability (% @ 10 μM) [2]: 122 ± 2% | Cell viability (% viable) [2]: 122 ± 2% | IC50 [3]: 13 ± 1 µM | inhibition at 100 µM [3]: 96% | EC50 [3]: 13 ± 1 µM | IC50 [4]: 54 ± 19.7 µM

Cc1ccc2nc(-c3ccc4nc(-c5ccc(NC(=O)c6cccc(C(F)(F)F)c6F)cc5)sc4c3)sc2c1S(=O)(=O)O [Compound 22, 2′-(4-(2-fluoro-3-(trifluoromethyl)benzamido)phenyl)-6-methyl-[2,6′-bibenzo[d]thiazole]-7-sulfonic acid]
DNA binding (%) [1]: 49 ± 27% | FID (SG) % Displaced @ 100 μM ([1]; SYBR Green): 49 ± 27% | EC50 [1, 5]: > 100 µM | Cell Viability (% @ 10 μM) [2]: 122 ± 1% | Cell viability (% viable) [2]: 122 ± 1% | IC50 [3]: 71 ± 13 µM | inhibition at 100 µM [3]: 63% | EC50 [3]: 71 ± 13 µM | IC50 [4]: 8.1 ± 2 µM

Cc1ccc2nc(-c3ccc4nc(-c5ccc(NC(=O)c6ccc(C(F)(F)F)c(F)c6)cc5)sc4c3)sc2c1S(=O)(=O)O [Compound 23, 2′-(4-(3-fluoro-4-(trifluoromethyl)benzamido)phenyl)-6-methyl-[2,6′-bibenzo[d]thiazole]-7-sulfonic acid]
DNA binding (%) [1]: 66 ± 18% | FID (SG) % Displaced @ 100 μM ([1]; SYBR Green): 66 ± 18% | EC50 [1, 5]: 28 ± 28 µM | Cell Viability (% @ 10 μM) [2]: 129 ± 2% | Cell viability (% viable) [2]: 129 ± 2% | IC50 [3]: 10 ± 1 µM | inhibition at 100 µM [3]: 92% | EC50 [3]: 10 ± 1 µM | IC50 [4]: 13 ± 2 µM

Cc1ccc2nc(-c3ccc4nc(-c5ccc(NC(=O)c6cc(F)ccc6C(F)(F)F)cc5)sc4c3)sc2c1S(=O)(=O)O [Compound 26, 2′-(4-(5-fluoro-2-(trifluoromethyl)benzamido)phenyl)-6-methyl-[2,6′-bibenzo[d]thiazole]-7-sulfonic acid]
DNA binding (%) [1]: 35 ± 21% | FID (SG) % Displaced @ 100 μM ([1]; SYBR Green): 35 ± 21% | EC50 [1, 5]: > 100 µM | Cell Viability (% @ 10 μM) [2]: 118 ± 4% | Cell viability (% viable) [2]: 118 ± 4% | IC50 [3]: 14 ± 2 µM | inhibition at 100 µM [3]: 95% | EC50 [3]: 14 ± 2 µM | IC50 [4]: 16.6 ± 2 µM

Cc1ccc2nc(-c3ccc4nc(-c5ccc(NC(=O)c6cc(F)cc(C(F)(F)F)c6)cc5)sc4c3)sc2c1S(=O)(=O)O [Compound 27, 2′-(4-(3-fluoro-5-(trifluoromethyl)benzamido)phenyl)-6-methyl-[2,6′-bibenzo[d]thiazole]-7-sulfonic acid]
DNA binding (%) [1]: 48 ± 17% | FID (SG) % Displaced @ 100 μM ([1]; SYBR Green): 48 ± 17% | EC50 [1, 5]: > 100 µM | Cell Viability (% @ 10 μM) [2]: 113 ± 1% | Cell viability (% viable) [2]: 113 ± 1% | inhibition at 100 µM [3]: 23% | EC50 [3]: > 100 µM | IC50 [4]: 15.8 ± 2.2 µM

Cc1ccc(NC(=O)Nc2ccc(-c3nc4ccc(-c5nc6ccc(C)c(S(=O)(=O)O)c6s5)cc4s3)cc2)cc1 [Compound 28, 6-methyl-2′-(4-(3-(p-tolyl)ureido)phenyl)-[2,6′-bibenzo[d]thiazole]-7-sulfonic acid]
EC50 ([1]; FID, mean ± SD, read-out: DNA Binding (SYBR Green I) EC50): 13 µM | DNA binding (%) [1]: 90 ± 9% | FID (SG) % Displaced @ 100 μM ([1]; SYBR Green): 90 ± 9% | EC50 [1, 5]: 18 µM | Cell Viability (% @ 10 μM) [2]: 93 ± 1% | Cell viability (% viable) [2]: 93 ± 1% | IC50 [3]: 10 ± 3 µM | inhibition at 100 µM [3]: 96% | EC50 [3]: 10 µM | IC50 [4]: 4 µM
